Measured values: patent publication US11492335B2, “Aryl or heteroaryl triazolone derivatives or salts thereof, or pharmaceutical compositions comprising the same” (YUHAN CORPORATION, priority 2018, dated 2022)
Structures can show the parent of a compound that is named as a salt. Where two headings read alike, the source gives them in different places.

Experiments:
Format in all cases: biochemical
[1] = molecular target: T1, recombinant human DAO (diamine oxidase) (Homo sapiens, UniProt P19801); assay: Activity on recombinant human DAO, Amplex Red method, 1 mM putrescine substrate; conditions: recombinant human DAO, read-out: Inhibitory Activity (IC50, nM) DAO
T1 construct: purchased R&D systems
T1 sequence (P19801 20-751): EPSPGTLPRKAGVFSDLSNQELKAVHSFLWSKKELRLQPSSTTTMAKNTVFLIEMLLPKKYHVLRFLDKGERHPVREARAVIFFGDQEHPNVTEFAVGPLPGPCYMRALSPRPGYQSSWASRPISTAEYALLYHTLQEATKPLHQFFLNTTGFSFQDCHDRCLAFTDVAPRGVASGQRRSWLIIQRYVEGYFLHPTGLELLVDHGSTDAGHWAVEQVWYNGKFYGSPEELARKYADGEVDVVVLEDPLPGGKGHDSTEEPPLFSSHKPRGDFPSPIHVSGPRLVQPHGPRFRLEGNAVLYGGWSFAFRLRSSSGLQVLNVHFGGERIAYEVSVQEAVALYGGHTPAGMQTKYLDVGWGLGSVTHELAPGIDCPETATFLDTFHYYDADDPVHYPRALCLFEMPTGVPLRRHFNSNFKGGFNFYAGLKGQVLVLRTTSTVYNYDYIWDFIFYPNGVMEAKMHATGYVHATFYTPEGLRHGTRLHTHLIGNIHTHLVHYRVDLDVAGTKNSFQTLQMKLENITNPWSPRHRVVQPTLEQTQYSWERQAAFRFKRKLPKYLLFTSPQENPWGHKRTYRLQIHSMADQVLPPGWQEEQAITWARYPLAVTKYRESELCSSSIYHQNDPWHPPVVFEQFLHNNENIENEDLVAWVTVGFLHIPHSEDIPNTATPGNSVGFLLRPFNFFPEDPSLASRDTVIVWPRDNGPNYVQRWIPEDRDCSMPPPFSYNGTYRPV
Method in brief: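 Inhibition of recombinant human DAO (diamine oxidase, R&D systems) was assessed with the Amplex Red Hydrogen Peroxide Assay Kit. Hydrogen peroxide produced from 1 mM putrescine was detected through an HRP-coupled reaction that converts Amplex Red into fluorescent resorufin, read at 544 nm excitation and 590 nm emission. IC50 values came from four-parameter logistic fits in GraphPad Prism.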

recombinant human VAP-1 = molecular target: T2, recombinant human VAP-1 (Homo sapiens, UniProt Q16853); assay: Activity on recombinant human VAP-1, Amplex Red HRP-coupled hydrogen peroxide assay, benzylamine substrate; conditions: recombinant human VAP-1, benzylamine substrate, read-out: Inhibitory Activity (IC50, nM) human VAP-1
T2 construct: purchased R&D systems
T2 sequence (Q16853 1-763): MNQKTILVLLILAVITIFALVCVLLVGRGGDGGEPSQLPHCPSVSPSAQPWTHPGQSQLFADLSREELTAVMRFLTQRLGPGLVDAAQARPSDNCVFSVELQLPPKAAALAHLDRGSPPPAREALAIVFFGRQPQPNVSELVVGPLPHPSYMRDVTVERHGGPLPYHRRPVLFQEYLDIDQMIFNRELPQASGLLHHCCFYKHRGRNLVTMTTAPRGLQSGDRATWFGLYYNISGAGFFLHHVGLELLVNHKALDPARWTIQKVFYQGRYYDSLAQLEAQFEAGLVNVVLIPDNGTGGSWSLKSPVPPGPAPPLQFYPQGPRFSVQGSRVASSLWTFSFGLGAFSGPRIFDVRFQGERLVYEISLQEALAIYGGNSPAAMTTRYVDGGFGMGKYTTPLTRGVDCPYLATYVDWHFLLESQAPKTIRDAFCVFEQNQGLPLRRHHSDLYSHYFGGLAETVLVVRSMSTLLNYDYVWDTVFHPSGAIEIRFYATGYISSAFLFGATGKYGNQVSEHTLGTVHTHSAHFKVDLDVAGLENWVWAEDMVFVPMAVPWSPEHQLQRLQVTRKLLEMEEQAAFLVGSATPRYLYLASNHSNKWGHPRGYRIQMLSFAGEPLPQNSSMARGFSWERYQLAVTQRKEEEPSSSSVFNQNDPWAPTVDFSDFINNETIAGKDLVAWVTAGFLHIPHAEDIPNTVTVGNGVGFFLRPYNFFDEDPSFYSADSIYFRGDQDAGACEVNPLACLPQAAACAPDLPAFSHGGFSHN
Method in brief: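 Compounds were preincubated with purified enzyme in 50 mM sodium phosphate pH 7.4 at 37 °C for 30 min, then 200 uM Amplex Red, 1 mM benzylamine and 1 U/mL HRP were added. Resorufin fluorescence (ex 544/em 590 nm) was followed over 1-2 h; IC50 came from 4-parameter fits of signal-rate inhibition.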

[2] = molecular target: T3, recombinant human MAO-A (monoamine oxidase-A) (Homo sapiens, UniProt P21397); assay: Activity on recombinant human MAO-A, Amplex Red method, 0.5 mM tyramine substrate; conditions: read-out: Inhibitory Activity (IC50, nM) MAO-A
T3 construct: purchased Sigma-Aldrich
T3 sequence (P21397 1-527): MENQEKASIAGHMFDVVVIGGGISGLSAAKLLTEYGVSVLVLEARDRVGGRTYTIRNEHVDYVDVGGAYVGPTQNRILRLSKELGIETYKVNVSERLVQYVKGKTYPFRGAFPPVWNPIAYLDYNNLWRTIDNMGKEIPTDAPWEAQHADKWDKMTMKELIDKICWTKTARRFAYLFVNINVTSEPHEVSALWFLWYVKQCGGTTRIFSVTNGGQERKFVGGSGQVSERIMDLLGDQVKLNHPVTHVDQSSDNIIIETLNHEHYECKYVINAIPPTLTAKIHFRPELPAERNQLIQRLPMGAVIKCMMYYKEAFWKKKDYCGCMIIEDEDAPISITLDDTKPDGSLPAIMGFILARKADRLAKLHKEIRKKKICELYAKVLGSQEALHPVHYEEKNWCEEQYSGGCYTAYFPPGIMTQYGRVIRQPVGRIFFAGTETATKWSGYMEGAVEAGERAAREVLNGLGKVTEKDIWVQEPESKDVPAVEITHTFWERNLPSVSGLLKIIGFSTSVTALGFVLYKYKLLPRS
Method in brief: (§1)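 8-point, 1:3 dose-response, four-parameter logistic IC50 from reduction in fluorescence rate versus DMSO control. HRP/Amplex Red detection of H2O2 (ex 544, em 590 nm) after 30 min, 37 °C compound–enzyme preincubation in pH 7.4 phosphate buffer. MAO-A substrate: 0.5 mM tyramine; MAO-B: 1 mM benzylamine.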

[3] = molecular target: T4, recombinant human MAO-B (monoamine oxidase-B) (Homo sapiens, UniProt P27338); assay: Activity on recombinant human MAO-B, Amplex Red method, 1 mM benzylamine substrate; conditions: read-out: Inhibitory Activity (IC50, nM) MAO-B
T4 construct: purchased Sigma-Aldrich
T4 sequence (P27338 1-520): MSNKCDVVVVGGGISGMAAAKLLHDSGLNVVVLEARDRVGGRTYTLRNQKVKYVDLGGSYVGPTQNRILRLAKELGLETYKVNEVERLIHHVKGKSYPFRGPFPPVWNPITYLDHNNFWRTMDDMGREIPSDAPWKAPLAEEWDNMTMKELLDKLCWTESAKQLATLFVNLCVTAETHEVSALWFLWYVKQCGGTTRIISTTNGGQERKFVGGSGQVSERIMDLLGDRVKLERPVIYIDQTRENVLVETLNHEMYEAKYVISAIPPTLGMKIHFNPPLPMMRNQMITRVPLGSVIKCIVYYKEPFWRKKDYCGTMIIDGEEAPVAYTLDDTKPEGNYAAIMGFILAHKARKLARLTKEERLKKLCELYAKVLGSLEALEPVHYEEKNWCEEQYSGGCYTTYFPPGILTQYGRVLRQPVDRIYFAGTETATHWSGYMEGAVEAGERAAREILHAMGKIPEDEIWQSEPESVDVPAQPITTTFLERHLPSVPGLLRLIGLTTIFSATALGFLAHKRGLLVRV
Method in brief: as §1

[4] = 1 mM putrescine, * = between 10 and 100 nM, ** = between 300 and 1000 nM

SMILES	IC50 ([1]; 1 mM putrescine substrate) [nM]	IC50 (recombinant human VAP-1) [nM]	IC50 ([2]; 0.5 mM tyramine substrate) [nM]	IC50 ([3]; 1 mM benzylamine substrate) [nM]	IC50 [1, 4] [nM]	IC50 (recombinant human VAP-1; 30 min preincubation at 37° C.) [nM]	IC50 ([2]; 0.5 mM tyramine) [nM]	IC50 ([3]; 1 mM benzylamine) [nM]
NC/C(=C\F)Cn1ncn(-c2cccc(-c3cccc(N4CCNCC4)c3)n2)c1=O [Example 185, 2-[(2E)-2-(aminomethyl)-3-fluoroprop-2-en-1-yl]-4-{6-[3-(piperazin-1-yl)phenyl]pyridin-2-yl}-2,4-dihydro-3H-1,2,4-triazol-3-one hydrochloride]	2.5	2.4	> 100000	> 10000				
Cc1cc(-n2cnn(C/C(=C/F)CN)c2=O)ncc1-c1ccc(-c2nc[nH]n2)cc1 [Example 157, 2-[(2E)-2-(aminomethyl)-3-fluoroprop-2-en-1-yl]-4-{4-methyl-5-[4-(1H-1,2,4-triazol-3-yl)phenyl]pyridin-2-yl}-2,4-dihydro-3H-1,2,4-triazol-3-one]	< 100	0.3	> 100000	3790				
NC/C(=C\F)Cn1ncn(-c2cccc(-c3ccc4c(c3)NC(=O)OC4)n2)c1=O [Example 200, 7-(6-{1-[(2E)-2-(aminomethyl)-3-fluoroprop-2-en-1-yl]-5-oxo-1,5-dihydro-4H-1,2,4-triazol-4-yl}pyridin-2-yl)-1,4-dihydro-2H-3,1-benzoxazin-2-one hydrochloride]	1.6	0.2	> 100000	1100				
Cc1cc(-c2ccc(N3CCNCC3)cc2)cnc1-n1cnn(C/C(=C/F)CN)c1=O [Example 145, 2-[(2E)-2-(aminomethyl)-3-fluoroprop-2-en-1-yl]-4-{3-methyl-5-[4-(piperazin-1-yl)phenyl]pyridin-2-yl}-2,4-dihydro-3H-1,2,4-triazol-3-one hydrochloride]					13000	0.9	> 100000	> 10000
Cc1cc(-c2ccc(S(C)(=O)=O)cc2)cnc1-n1cnn(C/C(=C/F)CN)c1=O [Example 133, 2-[(2E)-2-(aminomethyl)-3-fluoroprop-2-en-1-yl]-4-{3-methyl-5-[4-(methylsulfonyl)phenyl]pyridin-2-yl}-2,4-dihydro-3H-1,2,4-triazol-3-one hydrochloride]					220	0.84	> 100000	> 10000
NC/C(=C\F)Cn1ncn(-c2cccc(-c3ccc(-c4ncon4)cc3)c2)c1=O [Example 61, 2-[(2E)-2-(aminomethyl)-3-fluoroprop-2-en-1-yl]-4-[4′-(1,2,4-oxadiazol-3-yl)biphenyl-3-yl]-2,4-dihydro-3H-1,2,4-triazol-3-one]					< 100	0.65	62000	998
NC/C(=C\F)Cn1ncn(-c2cccc(-c3ccc4sc(N)nc4c3)n2)c1=O [Example 196, 4-[6-(2-amino-1,3-benzothiazol-5-yl)pyridin-2-yl]-2-[(2E)-2-(aminomethyl)-3-fluoroprop-2-en-1-yl]-2,4-dihydro-3H-1,2,4-triazol-3-one]	11	1.1	> 100000	> 10000				
Cc1ccc(-c2ccc(C(=O)N3CCOCC3)cc2)nc1-n1cnn(C/C(=C/F)CN)c1=O [Example 211, 2-[(2E)-2-(aminomethyl)-3-fluoroprop-2-en-1-yl]-4-{3-methyl-6-[4-(morpholin-4-ylcarbonyl)phenyl]pyridin-2-yl}-2,4-dihydro-3H-1,2,4-triazol-3-one hydrochloride]	3500	49	> 100000	> 10000				
NC/C(=C\F)Cn1ncn(-c2cccc(-c3ccc(N4CCNCC4)cc3)n2)c1=O [Example 184, 2-[(2E)-2-(aminomethyl)-3-fluoroprop-2-en-1-yl]-4-{6-[4-(piperazin-1-yl)phenyl]pyridin-2-yl}-2,4-dihydro-3H-1,2,4-triazol-3-one hydrochloride]	110	1.4	14000	> 10000				
